Results taken from patent publication US20200339544A1 (JOINT STOCK COMPANY "BIOCAD", priority 2017, published 2020).
Where a name gives a salt, the structure may show the parent alone. Read-outs that look alike come from different tables or passages of the source. Marks after values point to notes of the source that are not given here.

Assays:
[1] = system: H1975 (lung adenocarcinoma, DM, L828R/T790M); test: Antiproliferative activity on H1975 cells (Alamar Blue); format: cell-based; settings: for IC50: Homo sapiens, NCI-H1975, H1975 cells; for SI IC50(A549)/IC50(DM): selectivity index, A549 vs H1975 cells
In short: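 IC50 was fitted with a four-parameter logistic model to Alamar Blue fluorescence (540/590 nm), read 3-5 h after dye addition. Before that, compounds acted on attached H1975 cells, 15*10^3 per well in 2% FBS RPMI-1640, for 72 h at 37 °C, DMSO no more than 1%.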

[2] = system: A549 (lung adenocarcinoma, WT); test: Antiproliferative activity on A549 cells (Alamar Blue); format: cell-based; settings: Homo sapiens, antiproliferative test
In short: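 Viability read by Alamar Blue fluorescence (λEx 540, λEm 590 nm) 3-5 h after dye addition, following 72 h compound treatment at 37° C in 2% FBS RPMI-1640, ≤1% DMSO. Seeding 5*10^3 cells/well, 16-18 h attachment. Four-parameter logistic model gave IC50.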

[3] = Enzyme stability in human liver S9 fractions; format: in vitro ADME; settings: 0.5 mg/mL pooled human liver S9 fractions; 10 μM compound; 37° C.; pH 7.4; read-out: Stability in liver S9 fractions, Clint
In short: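 Compound at 10 μM was incubated at 37 °C with 0.5 mg/mL pooled human liver S9, 2 mM β-NAD and 4 mM MgCl2 in 0.1 M sodium phosphate, pH 7.4, then quenched with acetonitrile and analysed chromatographically. T½ and CLint were derived from the slope of log peak area versus time.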

[4] = Chemical stability in simulated gastric fluid (SGF); format: physicochemical; settings: SGF without enzymes, pH 1,4; 10 μm; 2 hours at 37° C.; substance amount remaining
In short: (§1)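 Compound at 10 μm (diluted from 10 mM DMSO stock) incubated 2 h at 37° C in enzyme-free SGF, pH=1,4, or enzyme-free SIF, pH=6.5. HPLC peak areas before and after incubation give % compound remaining.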

[5] = system: HCC827 (lung adenocarcinoma, SM, exon19delE746-A750); test: Antiproliferative activity on HCC827 cells (Alamar Blue); format: cell-based; settings: Homo sapiens, antiproliferative test
In short: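 HCC827 cells (EGFR exon19del E746-A750), 10×10^3/well, attached 16–18 h, then exposed to compounds for 72 h at 37 °C in RPMI-1640 with 2% FBS, ≤1% DMSO. Viability by Alamar Blue fluorescence (ex 540/em 590 nm) after 3–5 h; IC50 by four-parameter logistic fit.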

[6] = Chemical stability in simulated intestinal fluid (SIF); format: physicochemical; settings: SIF without enzymes, pH 6.5; 10 μm; 2 hours at 37° C.; substance amount remaining
In short: as §1

[7] = Chemical stability in human blood plasma; format: in vitro ADME; settings: pooled human blood plasma; 10 μm; 4 hours at 37° C.; substance amount remaining
In short: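 Percent of parent remaining was derived by comparing HPLC peak areas at time zero and after 4 h at 37 °C. Test compound was at 10 μM in human plasma pooled from ten donors, and proteins were precipitated with acetonitrile before analysis.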

[8] = average values obtained in several tests, Table 16, read-out: H1975 (DM) IC50
[9] = antiproliferative test, Table 15, read-out: IC50 H1975 (DM)

| IC50 [1, 8] [nM] | IC50 [1, 9] [nM] | IC50 [2] [nM] | Intrinsic clearance in human liver S9 fractions at 10 µM [3] [µL/min/mg] | Stability in SGF, % [4] [%] | IC50 [5] [nM] | Stability in SIF, % [6] [%] | Stability in blood plasma, % [7] [%] | SMILES | SI IC50(A549)/IC50(DM) [1] |
| --- | --- | --- | --- | --- | --- | --- | --- | --- | --- |
| 44.9 | 44.9 | 8240 | 10.1 | 100.0 | 26.6 | 98.8 | 91.8 | C=CC(=O)Nc1cc(Nc2cc(C(=O)c3ccc(N4CC(OC)C4)cc3)ccn2)c(OC)cc1N(C)CCN(C)C (racemic) [EGFR_3365_53, N-(2-((2-(dimethylamino)ethyl)(methyl)amino)-4-methoxy-5-((4-(4-(3-methoxyazetidin-1-yl)benzoyl)pyridin-2-yl)amino)phenyl)acrylamide] | 183 |
| 60.1 | 60.1 | > 10000 | 13.6 | 100.0 | 14.3 | 100.0 | 90.3 | C=CC(=O)Nc1cc(Nc2nccc(C(=O)c3ccccc3C(F)(F)F)n2)c(OC)cc1N(C)CCN(C)C [EGFR_3365, N-(2-((2-(dimethylamino)ethyl) (methyl)amino)-4-methoxy-5-((4-(2-(trifluoromethyl)benzoyl)pyrimidin-2-yl)amino)phenyl)acrylamide] | >166** |
| 211 | 211 | 13200 | 6.8 | 100.0 | 5.9 | 100.0 | 94.2 | C=CC(=O)Nc1cc(Nc2nccc(C(=O)c3ccc(F)cc3)n2)c(OC)cc1N(C)CCN(C)C [EGFR_3365_10, N-(2-((2-(dimethylamino)ethyl)(methyl)amino)-5-((4-(4-fluorobenzoyl)pyrimidin-2-yl)amino)-4-methoxyphenyl) acrylamide] | 62.70 |
| 53.7 | 53.7 | 2210 | 17.9 | 100.0 | 10 | 100.0 | 83.5 | C=CC(=O)Nc1cc(Nc2nccc(C(=O)c3ccc(OCc4ccccc4)cc3)n2)c(OC)cc1N(C)CCN(C)C [EGFR_3365_16, N-(5-((4-(4-(benzyloxy)benzoyl)pyrimidin-2-yl)amino)-2-((2-(dimethylamino)ethyl)(methyl)amino)-4-methoxyphenyl)acrylamide] | 41.10 |
| 393 | 394 | 2390 | 10.9 | 100.0 | 41.3 | 98.8 | 97.0 | C=CC(=O)Nc1cc(Nc2nccc(C(=O)c3ccc(Oc4ccccc4)cc3)n2)c(OC)cc1N(C)CCN(C)C [EGFR_3365_17, N-(2-((2-(dimethylamino)ethyl)(methyl)amino)-4-methoxy-5-((4-(4-phenoxybenzoyl)pyrimidin-2-yl)amino)phenyl)acrylamide] | 6.08 |
| 47.5 | 47.5 | 4920 | 1.1 | 100.0 | 26.9 | 98.5 | 89.0 | C=CC(=O)Nc1cc(Nc2cc(C(=O)c3ccc(OCCC)cc3)ccn2)c(OC)cc1N(C)CCN(C)C [EGFR_3365_50, N-(2-((2-(dimethylamino)ethyl)(methyl)amino)-4-methoxy-5-((4-(4-propoxybenzoyl)pyridin-2-yl)amino)phenyl)acrylamide] | 104 |
| 211 | 211 | 11600 | 5 | 98.8 | 20.1 | 97.2 | 84.8 | C=CC(=O)Nc1cc(Nc2cc(C(=O)c3ccc(N4CCN(C)CC4)cc3)ccn2)c(OC)cc1N(C)CCN(C)C [EGFR_3365_55, N-(2-((2-(dimethylamino)ethyl)(methyl)amino)-4-methoxy-5-((4-(4-(4-methylpiperazin-1-yl)benzoyl)pyridin-2-yl)amino)phenyl)acrylamide] | 55 |
| 29.2 | 29.2 | 4540 | 9.1 | 99.8 | 29.9 | 96.4 | 83.2 | C=CC(=O)Nc1cc(Nc2cc(C(=O)c3ccc(N4CCCC4)cc3)ccn2)c(OC)cc1N(C)CCN(C)C [EGFR_3365_56, N-(2-((2-(dimethylamino)ethyl)(methyl)amino)-4-methoxy-5-((4-(4-(pyrrolidin-1-yl)benzoyl)pyridin-2-yl)amino)phenyl)acrylamide] | 156 |
| 8.1 | 10.5 | > 10000 | 17.7 | 89.9 | 6.23 | 100.0 | 99.7 | C=CC(=O)Nc1cc(Nc2nccc(C(=O)c3ccc(N4CCC4)cc3)n2)c(OC)cc1N(C)CCN(C)C [EGFR_3365_58, N-(5-((4-(4-(azetidin-1-yl)benzoyl)pyrimidin-2-yl)amino)-2-((2-(dimethylamino)ethyl)(methyl)amino)-4-methoxyphenyl)acrylamide] | >1235 |
| 8.1 | 8.12 | 23400 | 12.8 | 100.0 | 5.77 | 98.8 | 91.8 | C=CC(=O)Nc1cc(Nc2nccc(C(=O)c3ccc(N4CC(OC)C4)cc3)n2)c(OC)cc1N(C)CCN(C)C [EGFR_3365_61, N-(2-((2-(dimethylamino)ethyl)(methyl)amino)-4-methoxy-5-((4-(4-(3-methoxyazetidin-1-yl)benzoyl)pyrimidin-2-yl)amino)phenyl)acrylamide] | 2884 |
| 2 | 5.79 | 10800 | 15.6 | 100.0 | 4.27 | 100.0 | 100.0 | C=CC(=O)Nc1cc(Nc2nccc(C(=O)c3ccc(N4CCCC4)cc3)n2)c(OC)cc1N(C)CCN(C)C [EGFR_3365_63, N-(2-((2-(dimethylamino)ethyl)(methyl)amino)-4-methoxy-5-((4-(4-(pyrrolidin-1-yl)benzoyl)pyrimidin-2-yl)amino)phenyl)acrylamide] | 5383 |

| SMILES | IC50 [1, 8] [nM] | IC50 [1, 9] [nM] | IC50 [2] [nM] | Intrinsic clearance in human liver S9 fractions at 10 µM [3] [µL/min/mg] | Stability in SGF, % [4] [%] | IC50 [5] [nM] | Stability in SIF, % [6] [%] | Stability in blood plasma, % [7] [%] | SI IC50(A549)/IC50(DM) [1] |
| --- | --- | --- | --- | --- | --- | --- | --- | --- | --- |
| C=CC(=O)Nc1cc(Nc2nccc(C(=O)c3ccc(N4CCN(C)CC4)cc3)n2)c(OC)cc1N(C)CCN(C)C [EGFR_3365_62, N-(2-((2-(dimethylamino)ethyl)(methyl)amino)-4-methoxy-5-((4-(4-(4-methylpiperazin-1-yl)benzoyl)pyrimidin-2-yl)amino)phenyl)acrylamide formate] | 22.8 | 60.8 | 12300 | 3.7 | 100.0 | 12.1 | 100.0 | 98.4 | 539 |
| C=CC(=O)Nc1cc(Nc2nccc(C(=O)c3ccc(OCCCC)cc3)n2)c(OC)cc1N(C)CCN(C)C [EGFR_3365_66, N-(5-((4-(4-butoxybenzoyl)pyrimidin-2-yl)amino)-2-((2-(dimethylamino)ethyl)(methyl)amino)-4-methoxyphenyl)acrylamide] | 34.7 | 34.7 | 4640 | 1.3 | 100.0 | 12.8 | 96.5 | 97.0 | 134 |
